US20110217715A1, “GENE EXPRESSION IN DUCHENNE MUSCULAR DYSTROPHY” (CHILDREN'S HOSPITAL MEDICAL CENTER, priority 2008, published 2011)

Test system: mRNA expression in peripheral blood of individuals with DMD
Experiment: Whole-blood gene expression microarray: DMD administered deflazacort vs DMD administered prednisone
Type: in vivo, human
Details: deflazacort vs. prednisone
Description: Fifteen ml of blood was collected from each individual into 6 PAXgene® Vacutainer® tubes (PreAnalytiX, Germany) by antecubital fossa venipuncture. PAXgene® tubes contain a proprietary reagent that immediately stabilizes RNA, thus reducing RNA degradation and minimizing gene expression changes following phlebotomy. The tubes were then inverted 20 times, then remained undisturbed for 2 h at room temperature (about 19° C. to about 22° C.), and then stored at -70° C. until processed. Total RNA was isolated using the Paxgene® blood RNA kit (PreAnalytiX, Germany) according to the manufacturers instructions. The RNA isolated is from all cells in whole blood. Typical yields of total RNA isolated from about 7.5 ml of human whole blood were between 10 μg RNA and 40 μg RNA. RNA quality and purity was analyzed by spectrophotometry using the Nanodrop ND-1000, and RNA integrity was analyzed using the Agilent 2100 Bioanalyzer. […] Sample labeling, hybridization to chips, and image scanning were performed using standard Affymetrix protocols. For each whole blood sample from control individuals and individuals with DMD, total RNA was labeled using the One-Cycle Target Labeling protocol and hybridized to the arrays. […] Double-stranded cDNA synthesis, biotin-labeled cRNA synthesis, and cRNA fragmentation were performed according to the Affymetrix GeneChip Eukaryotic Expression Analysis protocol. The labeled, fragmented cRNA (15 μg) was hybridized at 45° C. overnight. After hybridization, the array was washed and stained. The arrays were scanned with an argon-ion laser at λ=570 nm, with a resolution of 3 μm/pixel (Affymetrix, Inc.). After scanning the array, the raw probe level values for each probe were saved in Affymetrix.cel files. […] Statistical analyses, including t-test analyses, unsupervised hierarchical clustering, and principal component analyses were conducted using Genespring 7.2 software ([…]® 7, Silicon Genetics, Redwood City Calif.). […] Corrections for multiple comparisons used a Benjamini-Hochberg False Discovery Rate (FDR) of 0.05, disclosed in Tang et al., J Cereb Blood Flow Metab 26 (2006) 1089, which is expressly incorporated by reference herein in its entirety. […] Sample processing and array hybridization, probe-level data analysis, and statistical analysis were identical to Example 1.

## CC(=O)OCC(=O)[C@@]12N=C(C)O[C@@H]1C[C@H]1[C@@H]3CCC4=CC(=O)C=C[C@]4(C)[C@H]3[C@@H](O)C[C@@]12C [deflazacort]
AV700030, Nucleic Acid No. 2063
  p-value: 0.0254
AV722693, Nucleic Acid No. 1994
  p-value: 0.000689
AW070431, Nucleic Acid No. 2113
  p-value: 0.0198
AW081561, Nucleic Acid No. 2012
  p-value (t-test, deflazacort vs. prednisone): 0.0484
AW135013, Nucleic Acid No. 2109
  p-value: 0.0166
AW504458, Nucleic Acid No. 2032
  p-value (t-test, deflazacort vs. prednisone): 0.0109
AW590838, Nucleic Acid No. 2082
  p-value (t-test, deflazacort vs prednisone): 0.0481
AW978350, Nucleic Acid No. 2027
  p-value (t-test, deflazacort vs. prednisone): 0.0388
BC001152, Nucleic Acid No. 2025
  p-value: 0.0219
BC003542, Nucleic Acid No. 2048
  p-value (t-test, deflazacort vs. prednisone): 0.00709
BC006230, Nucleic Acid No. 2123
  p-value: 0.0131
BC006454, Nucleic Acid No. 1650
  p-value: 0.0101
BC012090, Nucleic Acid No. 2043
  p-value (t-test, deflazacort vs. prednisone): 0.0289
BC017896, Nucleic Acid No. 487
  p-value: 0.0133
BC025237, Nucleic Acid No. 2047
  p-value (t-test, deflazacort vs. prednisone): 0.0274
BC039454, Nucleic Acid No. 2011
  p-value (t-test, deflazacort vs. prednisone): 0.0311
BC042832, Nucleic Acid No. 2103
  p-value: 0.0214
BC043187, Nucleic Acid No. 2073
  p-value (t-test, deflazacort vs prednisone): 0.0446
BE207758, Nucleic Acid No. 1913
  p-value: 0.00136
BE348688, Nucleic Acid No. 1904
  p-value: 0.0249
BE439987, Nucleic Acid No. 1711
  p-value: 0.0106
BE465380, Nucleic Acid No. 1911
  p-value: 0.0346
BE550881, Nucleic Acid No. 2102
  p-value: 0.0423
BE563442, Nucleic Acid No. 2062
  p-value (t-test, deflazacort vs. prednisone): 0.00559
BE727883, Nucleic Acid No. 2120
  p-value: 0.0383
BE880245, Nucleic Acid No. 2033
  p-value (t-test, deflazacort vs. prednisone): 0.00733
BE964989, Nucleic Acid No. 2085
  p-value (t-test, deflazacort vs prednisone): 0.0484
BF338947, Nucleic Acid No. 2056
  p-value (t-test, deflazacort vs. prednisone): 0.0148
BF477544, Nucleic Acid No. 1895
  p-value: 0.0499
BF514079, Nucleic Acid No. 1363
  p-value (t-test, deflazacort vs prednisone): 0.0432
BF575213, Nucleic Acid No. 2122
  p-value: 0.00608
BF694956, Nucleic Acid No. 2041
  p-value (t-test, deflazacort vs. prednisone): 0.0262
BG029530, Nucleic Acid No. 2074
  p-value (t-test, deflazacort vs prednisone): 0.000753
BG249565, Nucleic Acid No. 2087
  p-value (t-test, deflazacort vs prednisone): 0.00518
D87291, Nucleic Acid No. 2077
  p-value: 0.0322
H12280, Nucleic Acid No. 2098
  p-value: 0.038
L18865, Nucleic Acid No. 2114
  p-value: 0.034
M15330, Nucleic Acid No. 2060
  p-value (t-test, deflazacort vs. prednisone): 0.0137
M35999, Nucleic Acid No. 2071
  p-value (t-test, deflazacort vs prednisone): 0.014
M60626, Nucleic Acid No. 2020
  p-value (t-test, deflazacort vs. prednisone): 0.0333
N36408, Nucleic Acid No. 2019
  p-value: 0.0384
N59653, Nucleic Acid No. 1900
  p-value: 0.044
N66633, Nucleic Acid No. 2090
  p-value (t-test, deflazacort vs prednisone): 0.0434
NM_000404, Nucleic Acid No. 2029
  p-value (t-test, deflazacort vs. prednisone): 0.000522
NM_000419, Nucleic Acid No. 2070
  p-value (t-test, deflazacort vs prednisone): 0.0421
NM_000484, Nucleic Acid No. 1261
  p-value: 0.00856
NM_000565, Nucleic Acid No. 2064
  p-value: 0.0489
NM_000576, Nucleic Acid No. 2059
  p-value (t-test, deflazacort vs. prednisone): 0.00127
NM_001109, Nucleic Acid No. 1899
  p-value: 0.0468
NM_001154, Nucleic Acid No. 1902
  p-value: 0.0116
NM_001456, Nucleic Acid No. 2015
  p-value (t-test, deflazacort vs. prednisone): 0.0172
NM_001553, Nucleic Acid No. 2057
  p-value (t-test, deflazacort vs. prednisone): 0.0297
NM_001557, Nucleic Acid No. 2065
  p-value (t-test, deflazacort vs. prednisone): 0.0421
NM_001637, Nucleic Acid No. 1903
  p-value: 0.0269
NM_001659, Nucleic Acid No. 1908
  p-value: 0.00749
NM_001690, Nucleic Acid No. 1917
  p-value: 0.021
NM_002068, Nucleic Acid No. 2030
  p-value (t-test, deflazacort vs. prednisone): 0.00544
NM_002087, Nucleic Acid No. 2038
  p-value (t-test, deflazacort vs. prednisone): 0.0294
NM_002110, Nucleic Acid No. 2040
  p-value (t-test, deflazacort vs. prednisone): 0.0352
NM_002155, Nucleic Acid No. 2049
  p-value (t-test, deflazacort vs. prednisone): 0.0206
NM_002199, Nucleic Acid No. 2068
  p-value (t-test, deflazacort vs prednisone): 0.0118
NM_002229, Nucleic Acid No. 2076
  p-value (t-test, deflazacort vs prednisone): 0.0299
NM_003644, Nucleic Acid No. 2023
  p-value: 0.00498
NM_003879, Nucleic Acid No. 1948
  p-value: 0.0159
NM_004041, Nucleic Acid No. 1914
  p-value: 0.0324
NM_004517, Nucleic Acid No. 2066
  p-value (t-test, deflazacort vs. prednisone): 0.0161
NM_004735, Nucleic Acid No. 2106
  p-value: 0.0293
